Experimental data reported in US7915223B2, “Antimicrobial agents” (priority 2004, dated 2011).
Like-named read-outs stand apart in the source and are kept apart here. Bridge positions count the residues as written; N and C are the ends. Ends that are not written are not given here. Peptide text beside a SMILES is read from it.

Assays:
[1] = Hydrophobicity estimation by reversed-phase HPLC (percent acetonitrile at elution); assay type: physicochemical; details: percent of acetonitrile at which the polymer was eluted on reversed-phase C18 HPLC
Experimental: HPLC chromatograms were performed on C18 columns (Vydak, 250 mm×4.6 or 10 mm) using a linear gradient of acetonitrile in water (1% per minute), both solvents contained 0.1% trifluoroacetic acid. The purified polymers were subjected to mass spectrometry (ZQ Waters) to confirm their composition and stored as a lyophilized powder at −20° C. Prior to being tested, fresh solutions were prepared in water, mixed by vortex, solubilized by ultrasound, centrifuged and then diluted in the appropriate medium.
In order to estimate the hydrophobicity of each polymer, the polymer was eluted with a linear gradient of acetonitrile (1% per minute) on an HPLC reversed-phase C18 column, and the percent of acetonitrile at which the polymer was eluted was used for hydrophobicity estimation (see, “ACN (%)” in Table 3 below).

[2] = tested on: microorganisms in the saliva of healthy human volunteers; details: fresh human saliva 1:1 with 100 μM agent, pH 5
Experimental: A solution of the saliva with no anti-bacterial agent served as a control. […] Each of the solutions was spread over a LA plate, and the plated saliva samples were incubated overnight at 37° C. without aeration. The colonies were enumerated and counted to determine the microbicidal effect of the drug. The values of viable colony forming units (CFU) were determined as described above.

[3] = Hemolysis assay; assay type: cell-based, human; details: lytic concentration inducing 50% lysis of human red blood cells in PBS, read-out: LC50 (the source's name)
Experimental: (§1) The polymer's membranolytic potential was determined against human red blood cells (RBC) in phosphate buffer solution (PBS).
(§2) Alternatively, a 10% hematocrit was used and hemolysis was determined after one hour incubation.

[4] = tested on: human red blood cells (RBC); test: Hemolysis assay; assay type: cell-based; details: human RBC, 10% hematocrit, 1 hour at 37° C., 31 μM, 94 μM and 156 μM
Experimental: as §1, §2

Row | Compound | ACN (%) [1] | growth of saliva microorganisms (CFU per ml versus incubation time) [2] | HC50 [3] | hemolytic activity [4] | HC50 ([3]; red blood cells (RBC))
1 | CC(C)C[C@H](NC(=O)CNC(=O)CNC(=O)[C@@H](N)CCCNC(=N)N)C(=O)N[C@H]1CSSC[C@@H](C(=O)N[C@H](C(=O)NCC(=O)N[C@@H](CCCNC(=N)N)C(N)=O)C(C)C)NC(=O)[C@H](C(C)C)NC(=O)[C@@H]2CSSC[C@H](NC(=O)[C@H](Cc3ccc(O)cc3)NC1=O)C(=O)N[C@@H](CCCNC(=N)N)C(=O)NCC(=O)N[C@@H](CCCNC(=N)N)C(=O)N[C@@H](Cc1ccccc1)C(=O)N2 [IB-367] (H-RGGLCYCRGRFCVCVGR-NH2; disulfide 5-14, 7-12) | 45% | inhibited but proliferation is resumed after 30 minutes | 7 µM |  | 
2 | CC[C@H](C)[C@H](NC(=O)[C@H](CCC(=O)O)NC(=O)[C@H](CCC(=O)O)NC(=O)[C@H](Cc1ccccc1)NC(=O)[C@H](CC(=O)O)NC(=O)CNC(=O)[C@H](CC(N)=O)NC(=O)CNC(=O)CNC(=O)CNC(=O)CNC(=O)[C@@H]1CCCN1C(=O)[C@H](CCCNC(=N)N)NC(=O)[C@@H]1CCCN1C(=O)[C@H](N)Cc1ccccc1)C(=O)N1CCC[C@H]1C(=O)N[C@@H](CCC(=O)O)C(=O)N[C@@H](CCC(=O)O)C(=O)N[C@@H](Cc1ccc(O)cc1)C(=O)N[C@@H](CC(C)C)C(=O)O [bivalirudin] |  |  |  | merely a “background level” activity | 
3 | GIGKFLKKAKKFGKAFVKILKK-NH2 [MSI-78] |  |  |  | high degree of hemolysis | 45 µM
